Experimental data taken from patent EP2327700A1, “Dialkyl triazinamines and use thereof for combating undesired plant growth” (Bayer CropScience AG, priority 2009, dated 2011).

Key:
Alopecurus myosuroides = assay: Herbicidal action post-emergence (greenhouse pot test); type: in vivo; conditions: 320 g/ha, visual rating after ca. 3 weeks vs untreated controls
Excerpt: (§1) • 1. Herbizide Wirkung bzw. Kulturpflanzenverträglichkeit im Vorauflauf Samen von mono- bzw. dikotylen Unkraut- bzw. Kulturpflanzen werden in Holzfasertöpfen in sandiger Lehmerde ausgelegt und mit Erde abgedeckt. Die in Form von benetzbaren Pulvern (WP) oder als Emulsionskonzentrate (EC) formulierten erfindungsgemäßen Verbindungen werden dann als wäßrige Suspension bzw. Emulsion mit einer Wasseraufwandmenge von umgerechnet 600 bis 800 I/ha unter Zusatz von 0,2% Netzmittel auf die Oberfläche der Abdeckerde appliziert. Nach der Behandlung werden die Töpfe im Gewächshaus aufgestellt und unter guten Wachstumsbedingungen für die Testpflanzen gehalten. Die visuelle Bonitur der Schäden an den Versuchspflanzen erfolgt nach einer Versuchszeit von 3 Wochen im Vergleich zu unbehandelten Kontrollen (herbizide Wirkung in Prozent (%): 100% Wirkung = Pflanzen sind abgestorben, 0 % Wirkung = wie Kontrollpflanzen). Dabei zeigen beispielsweise die Verbindungen Nr. I-16, I-17, I-48, I-50, I-51, I-52, I-54 und I-63 bei einer Aufwandmenge von 320 g/ha jeweils eine mindestens 80%-ige Wirkung gegen Lolium multiflorum, Setaria viridis und Stellaria media. Die Verbindungen Nr. I-64, I-65, I-66, I-68, I-69 und I-70 zeigen bei einer Aufwandmenge von 320 g/ha jeweils eine mindestens 80%-ige Wirkung gegen Amaranthus retroflexus, Pharbitis purpureumund Veronica persica. • 2. Herbizide Wirkung bzw. Kulturpflanzenverträglichkeit im Nachauflauf Samen von mono- bzw. dikotylen Unkraut- bzw. Kulturpflanzen werden in Holzfasertöpfen in sandigem Lehmboden ausgelegt, mit Erde abgedeckt und im Gewächshaus unter guten Wachstumsbedingungen angezogen. 2 bis 3 Wochen nach der Aussaat werden die Versuchspflanzen im Einblattstadium behandelt. Die in Form von benetzbaren Pulvern (WP) oder als Emulsionskonzentrate (EC) formulierten erfindungsgemäßen Verbindungen werden dann als wäßrige Suspension bzw. Emulsion mit einer Wasseraufwandmenge von umgerechnet 600 bis 800 I/ha unter Zusatz von 0,2% Netzmittel auf die grünen Pflanzenteile gesprüht. Nach ca. 3 Wochen Standzeit der Versuchspflanzen im Gewächshaus unter optimalen Wachstumsbedingungen wird die Wirkung der Präparate visuell im Vergleich zu unbehandelten Kontrollen bonitiert (herbizide Wirkung in Prozent (%): 100% Wirkung = Pflanzen sind abgestorben, 0 % Wirkung = wie Kontrollpflanzen). Dabei zeigen beispielsweise die Verbindungen Nr. I-50, I-52, I-54 und I-64 bei einer Aufwandmenge von 320 g/ha jeweils eine mindestens 80%-ige Wirkung gegen Alopecurus myosuroides, Setaria viridis und Stellaria media. Die Verbindungen Nr. I-51, I-63, I-66, I-69 und I-70 zeigen bei einer Aufwandmenge von 320 g/ha jeweils eine mindestens 80%-ige Wirkung gegen Alopecurus myosuroides, Veronica persica und Viola tricolor.

Setaria viridis [1] = assay: as above; type: in vivo; conditions: 320 g/ha, visual rating after ca. 3 weeks vs untreated controls
Excerpt: as §1

Stellaria media [2] = assay: as above; type: in vivo; conditions: 320 g/ha, visual rating after ca. 3 weeks vs untreated controls
Excerpt: as §1

[3] = logp (HCOOH) determination; type: physicochemical
Amaranthus retroflexus = assay: Herbicidal action pre-emergence (greenhouse pot test); type: in vivo; conditions: 320 g/ha, visual rating after 3 weeks vs untreated controls
Excerpt: as §1

Pharbitis purpureum = assay: as above; type: in vivo; conditions: 320 g/ha, visual rating after 3 weeks vs untreated controls
Excerpt: as §1

Veronica persica [4] = assay: as above; type: in vivo; conditions: 320 g/ha, visual rating after 3 weeks vs untreated controls
Excerpt: as §1

Lolium multiflorum = assay: as above; type: in vivo; conditions: 320 g/ha, visual rating after 3 weeks vs untreated controls
Excerpt: as §1

Setaria viridis [5] = assay: as above; type: in vivo; conditions: 320 g/ha, visual rating after 3 weeks vs untreated controls
Excerpt: as §1

Stellaria media [6] = assay: as above; type: in vivo; conditions: 320 g/ha, visual rating after 3 weeks vs untreated controls
Excerpt: as §1

Viola tricolor = assay: Herbicidal action post-emergence (greenhouse pot test); type: in vivo; conditions: 320 g/ha, visual rating after ca. 3 weeks vs untreated controls
Excerpt: as §1

Veronica persica [7] = assay: as above; type: in vivo; conditions: 320 g/ha, visual rating after ca. 3 weeks vs untreated controls
Excerpt: as §1

SMILES: Cc1ccc2c(c1)[C@H](Nc1nc(C)nc(C(F)F)n1)[C@@H](C)C2 [I-64]
- herbizide Wirkung in Prozent (%) (Alopecurus myosuroides): ≥ 80%
- herbizide Wirkung in Prozent (%) (Setaria viridis [1]): ≥ 80%
- herbizide Wirkung in Prozent (%) (Stellaria media [2]): ≥ 80%
- chromatographic logP ([3]; hcooh): 3.44
- herbizide Wirkung in Prozent (%) (Amaranthus retroflexus): ≥ 80%
- herbizide Wirkung in Prozent (%) (Pharbitis purpureum): ≥ 80%
- herbizide Wirkung in Prozent (%) (Veronica persica [4]): ≥ 80%

SMILES: Cc1nc(N[C@H]2c3cc(Br)ccc3C[C@@H]2C)nc(C(F)F)n1 [I-235, N-[trans-6-Brom-2-methyl-2,3-dihydro-1H-inden-1-yl]-4-(difluoromethyl)-6-methyl-1,3,5-triazin-2-amin]
- chromatographic logP ([3]; hcooh): 3.55

SMILES: Cc1nc(N[C@H]2c3cc(Br)ccc3C[C@@H]2C)nc(C(F)(F)Cl)n1 [I-81]
- chromatographic logP ([3]; hcooh): 3.8

SMILES: COCc1nc(C)nc(N[C@H]2c3cc(C)ccc3C[C@@H]2C)n1 [I-54, N-[(1R,2S)-2,6-Dimethyl-2,3-dihydro-1H-inden-1-yl]-4-(methoxymethyl)-6-methyl-1,3,5-triazin-2-amin]
- herbizide Wirkung in Prozent (%) (Alopecurus myosuroides): ≥ 80%
- herbizide Wirkung in Prozent (%) (Setaria viridis [1]): ≥ 80%
- herbizide Wirkung in Prozent (%) (Stellaria media [2]): ≥ 80%
- chromatographic logP ([3]; HCOOH (formic acid)): 2.16
- herbizide Wirkung in Prozent (%) (Lolium multiflorum): ≥ 80%
- herbizide Wirkung in Prozent (%) (Setaria viridis [5]): ≥ 80%
- herbizide Wirkung in Prozent (%) (Stellaria media [6]): ≥ 80%

SMILES: Cc1nc(C)nc(N[C@@H]2CCCc3ccccc32)n1 [I-78, 4,6-Dimethyl-N-[(1R)-1,2,3,4-tetrahydronaphthalen-1-yl]-1,3,5-triazin-2-amine]
- chromatographic logP ([3]; HCOOH (formic acid)): 1.35

SMILES: CCc1ccc2c(c1)C(Nc1nc(C)nc(C(F)F)n1)CCO2 (stereo not drawn) [I-134]
- chromatographic logP ([3]; hcooh): 3.1

SMILES: Cc1nc(NC2CC(C)(C)Oc3cc(Cl)c(F)cc32)nc(C(F)(F)Cl)n1 (stereo not drawn) [I-82]
- chromatographic logP ([3]; hcooh): 4.32

SMILES: Cc1nc(N[C@@H]2CCc3ccccc32)nc(C(F)F)n1 [I-91]
- chromatographic logP ([3]; hcooh): 2.69

SMILES: Cc1nc(NC2c3ccc(Cl)cc3CC2C)nc(C(F)F)n1 (stereo not drawn) [I-137]
- chromatographic logP ([3]; hcooh): 3.58

SMILES: Cc1nc(N[C@@H]2CCCc3ccccc32)nc(C(F)(F)Cl)n1 [I-67]
- chromatographic logP ([3]; hcooh): 3.9

SMILES: Cc1nc(N[C@@H]2CCOc3ccccc32)nc(C(F)(F)Cl)n1 [I-84]
- chromatographic logP ([3]; hcooh): 3.11

SMILES: COc1ccc2c(c1)CCCC2Nc1nc(C)nc(C(F)F)n1 (stereo not drawn) [I-159]
- chromatographic logP ([3]; hcooh): 2.9

SMILES: CCc1ccc2c(c1)C(Nc1nc(C)nc(C(F)(F)F)n1)CCO2 (stereo not drawn) [I-135]
- chromatographic logP ([3]; hcooh): 3.71

SMILES: CCc1nc(C)nc(N[C@@H]2CCCc3ccccc32)n1 [I-53]
- chromatographic logP ([3]; hcooh): 1.48

SMILES: Cc1nc(NC2CCOc3ccc(C(C)C)cc32)nc(C(F)F)n1 (stereo not drawn) [I-125]
- chromatographic logP ([3]; hcooh): 3.41

SMILES: Cc1ccc2c(c1)[C@H](Nc1nc(C)nc(C(Cl)(Cl)Cl)n1)[C@@H](C)C2 [I-70, N-[(1R,2S)-2,6-Dimethyl-2,3-dihydro-1H-inden-1-yl]-4-methyl-6-(trichloromethyl)-1,3,5-triazin-2-amin]
- herbizide Wirkung in Prozent (%) (Alopecurus myosuroides): ≥ 80%
- herbizide Wirkung in Prozent (%) (Viola tricolor): ≥ 80%
- herbizide Wirkung in Prozent (%) (Veronica persica [7]): ≥ 80%
- chromatographic logP ([3]; HCOOH (formic acid)): 4.85
- herbizide Wirkung in Prozent (%) (Amaranthus retroflexus): ≥ 80%
- herbizide Wirkung in Prozent (%) (Pharbitis purpureum): ≥ 80%
- herbizide Wirkung in Prozent (%) (Veronica persica [4]): ≥ 80%

SMILES: Cc1nc(NC2CCc3ccc(C(C)C)cc32)nc(C(F)F)n1 (stereo not drawn) [I-100]
- chromatographic logP ([3]; hcooh): 3.79

SMILES: Cc1ccc2c(c1)[C@H](Nc1nc(C)nc(C(Cl)Cl)n1)[C@@H](C)C2 [I-69]
- herbizide Wirkung in Prozent (%) (Alopecurus myosuroides): ≥ 80%
- herbizide Wirkung in Prozent (%) (Viola tricolor): ≥ 80%
- herbizide Wirkung in Prozent (%) (Veronica persica [7]): ≥ 80%
- chromatographic logP ([3]; hcooh): 4.13
- herbizide Wirkung in Prozent (%) (Amaranthus retroflexus): ≥ 80%
- herbizide Wirkung in Prozent (%) (Pharbitis purpureum): ≥ 80%
- herbizide Wirkung in Prozent (%) (Veronica persica [4]): ≥ 80%

SMILES: Cc1ccc2c(c1)[C@H](Nc1nc(C)nc(C(F)(F)Cl)n1)[C@@H](C)C2 [I-66]
- herbizide Wirkung in Prozent (%) (Alopecurus myosuroides): ≥ 80%
- herbizide Wirkung in Prozent (%) (Viola tricolor): ≥ 80%
- herbizide Wirkung in Prozent (%) (Veronica persica [7]): ≥ 80%
- chromatographic logP ([3]; hcooh): 4.36
- herbizide Wirkung in Prozent (%) (Amaranthus retroflexus): ≥ 80%
- herbizide Wirkung in Prozent (%) (Pharbitis purpureum): ≥ 80%
- herbizide Wirkung in Prozent (%) (Veronica persica [4]): ≥ 80%

SMILES: Cc1ccc2c(c1)OC(C)(C)CC2Nc1nc(C)nc(C(F)F)n1 (stereo not drawn) [I-130]
- chromatographic logP ([3]; hcooh): 3.3

SMILES: CCOc1ccc2c(c1)C(Nc1nc(C)nc(C(F)F)n1)CCC2 (stereo not drawn) [I-122]
- chromatographic logP ([3]; hcooh): 3.34

SMILES: Cc1nc(NC2CCc3c(C)cccc32)nc(C(F)(F)Cl)n1 (stereo not drawn) [I-147]
- chromatographic logP ([3]; hcooh): 3.98

SMILES: Cc1ccc2c(c1)[C@H](Nc1nc(C)nc(C(F)(F)F)n1)[C@@H](C)C2 [I-87]
- chromatographic logP ([3]; hcooh): 4.21

SMILES: Cc1nc(N[C@@H]2CCOc3c(F)cccc32)nc(C(F)(F)Cl)n1 [I-83]
- chromatographic logP ([3]; hcooh): 3.06

SMILES: Cc1nc(C)nc(NC2CCc3c(C)cccc32)n1 (stereo not drawn) [I-168, 4,6-Dimethyl-N-(4-methyl-2,3-dihydro-1H-inden-1-yl)-1,3,5-triazin-2-amine]
- chromatographic logP ([3]; HCOOH (formic acid)): 1.36

SMILES: Cc1ccc2c(c1)[C@H](Nc1nc(C)nc(C(C)(C)C)n1)[C@@H](C)C2 [I-51]
- herbizide Wirkung in Prozent (%) (Alopecurus myosuroides): ≥ 80%
- herbizide Wirkung in Prozent (%) (Viola tricolor): ≥ 80%
- herbizide Wirkung in Prozent (%) (Veronica persica [7]): ≥ 80%
- chromatographic logP ([3]; hcooh): 3.56
- herbizide Wirkung in Prozent (%) (Lolium multiflorum): ≥ 80%
- herbizide Wirkung in Prozent (%) (Setaria viridis [5]): ≥ 80%
- herbizide Wirkung in Prozent (%) (Stellaria media [6]): ≥ 80%

SMILES: Cc1ccc2c(c1)[C@H](Nc1nc(C)nc(C)n1)[C@@H](C)C2 [I-63]
- herbizide Wirkung in Prozent (%) (Alopecurus myosuroides): ≥ 80%
- herbizide Wirkung in Prozent (%) (Viola tricolor): ≥ 80%
- herbizide Wirkung in Prozent (%) (Veronica persica [7]): ≥ 80%
- chromatographic logP ([3]; hcooh): 1.59
- herbizide Wirkung in Prozent (%) (Lolium multiflorum): ≥ 80%
- herbizide Wirkung in Prozent (%) (Setaria viridis [5]): ≥ 80%
- herbizide Wirkung in Prozent (%) (Stellaria media [6]): ≥ 80%

SMILES: COc1ccc2c(c1)C(Nc1nc(C)nc(C(F)(F)F)n1)CCO2 (stereo not drawn) [I-237]
- chromatographic logP ([3]; hcooh): 2.93

SMILES: Cc1ccc2c(c1)[C@H](Nc1nc(C)nc(C(C)C)n1)[C@@H](C)C2 [I-50]
- herbizide Wirkung in Prozent (%) (Alopecurus myosuroides): ≥ 80%
- herbizide Wirkung in Prozent (%) (Setaria viridis [1]): ≥ 80%
- herbizide Wirkung in Prozent (%) (Stellaria media [2]): ≥ 80%
- chromatographic logP ([3]; hcooh): 2.16
- herbizide Wirkung in Prozent (%) (Lolium multiflorum): ≥ 80%
- herbizide Wirkung in Prozent (%) (Setaria viridis [5]): ≥ 80%
- herbizide Wirkung in Prozent (%) (Stellaria media [6]): ≥ 80%

SMILES: CCc1ccc2c(c1)C(Nc1nc(C)nc(C)n1)CCO2 (stereo not drawn) [I-238]
- chromatographic logP ([3]; hcooh): 1.51

SMILES: Cc1nc(NC2CC(C)(C)Oc3cc(Cl)c(F)cc32)nc(C(F)F)n1 (stereo not drawn) [I-95]
- chromatographic logP ([3]; hcooh): 4.32

SMILES: CCc1nc(C)nc(N[C@H]2c3cc(C)ccc3C[C@@H]2C)n1 [I-52]
- herbizide Wirkung in Prozent (%) (Alopecurus myosuroides): ≥ 80%
- herbizide Wirkung in Prozent (%) (Setaria viridis [1]): ≥ 80%
- herbizide Wirkung in Prozent (%) (Stellaria media [2]): ≥ 80%
- chromatographic logP ([3]; hcooh): 1.85
- herbizide Wirkung in Prozent (%) (Lolium multiflorum): ≥ 80%
- herbizide Wirkung in Prozent (%) (Setaria viridis [5]): ≥ 80%
- herbizide Wirkung in Prozent (%) (Stellaria media [6]): ≥ 80%

SMILES: Cc1cc(C)c2c(c1)C(Nc1nc(C)nc(C)n1)CCC2 (stereo not drawn) [I-17, N2-(5,7-Dimethyl-1,2,3,4-tetrahydro-1-naphthalenyl)-4,6-dimethyl-1,3,5-triazin-2-amine]
- herbizide Wirkung in Prozent (%) (Lolium multiflorum): ≥ 80%
- herbizide Wirkung in Prozent (%) (Setaria viridis [5]): ≥ 80%
- herbizide Wirkung in Prozent (%) (Stellaria media [6]): ≥ 80%

SMILES: Cc1nc(N[C@@H]2CCCc3ccccc32)nc(C(Cl)(Cl)Cl)n1 [I-71]
- chromatographic logP ([3]; hcooh): 4.4
